Measured values as given in patent publication US8426568B2 (University of Virginia Patent Foundation, priority 2006, dated 2013).
pEC50, pIC50: −log10 of the molar value. ≈ marks a conversion by molar mass, not a printed value. Read-outs that look alike come from different tables or passages of the source.

Legend:
[1] = target: recombinant, constitutively active RSK2 (Homo sapiens, UniProt P51812); assay: in vitro RSK kinase assay; format: biochemical; conditions: 10 μM ATP, 30 min, read-out: IC50 for inhibition of RSK catalytic activity in vitro
[2] = test system: MCF-7 cells; assay: MCF-7 cell proliferation (CellTiter-Glo); format: cell-based, human; conditions: for inhibition of MCF-7 cell proliferation at 50 μM: 72 h
Protocol: (2A) The potency of purified compounds in inhibiting RSK catalytic activity in vitro was measured. Kinase assays were performed using immobilized substrate. The reactions were initiated by the addition of 10 μM ATP (final concentration). Reactions were terminated after 30 min. All assays measured the initial reaction velocity. The extent of phosphorylation was determined using phosphospecific antibodies in combination with HRP-conjugated secondary antibodies. HRP activity was measured as described in the Experimental. Maximum and minimum activity is the relative luminescence detected in the presence of vehicle and 200 mM EDTA, respectively. Points, mean (n=2 in triplicate); bars=SD. (2B) The potency of purified compounds as inhibitors of MCF-7 cell proliferation was determined. […] Values given are the fold proliferation. Points, mean (n=3 in quadruplicate); bars=SD.
(§1) The cell number was measured after 48 h of treatment. Values given are the fold proliferation as a percentage of that observed with vehicle-treated cells. Points, mean (n=2 in quadruplicate); bars=SD.
(§2) For proliferation studies cells were seeded at 5000 cells per well in 96 well tissue culture plates in the appropriate medium as described by American Type Culture Collection. After 24 hours, the medium was replaced with medium containing compound or vehicle as indicated. Cell viability was measured at indicated time points using CellTiter-Glo™ assay reagent (Promega, Madison, Wis.) according to manufacturer's protocol. Maximum responses and the concentrations of half the effective response (EC50) were determined by performing a best-fit analysis of the data (GraphPad Prism). For specificity studies, cells were seeded at 3×10^5 cells/well in 6 well plates. After 24 hours, the cells were serum-starved for 24 hours then incubated with compound or vehicle for 4 hours prior to a 20 minute treatment with PDB. Cells were lysed with boiling SDS-sample buffer without dithiothreitol (DTT). The lysates were normalized for total protein, and DTT was added to an aliquot, which was electrophoresed and immunoblotted. Antibodies used on cell lysates included anti-pan-MAPK (anti-ERK1/2) (610124) from BD Transduction Laboratories; anti-phospho-MAPK (V8031) from Promega; anti-eEF2 (2332), anti-phospho-eEF2 (2331), anti-phospho-Akt Substrate (9611), anti-phospho-PKA Substrate (9621), and anti-phospho-PKC Substrate (2261) from Cell Signaling Technology. Anti-Ran was a generous gift from Ian Macara (University of Virginia).

[3] = test system: MCF-10A cells; assay: MCF-10A cell proliferation (CellTiter-Glo); format: cell-based, human; conditions: 48 h treatment
Protocol: as §1
as §2, with “Antibodies used on cell lysates included anti-pan-MAPK (anti-ERK1/2) (610124) from BD Transduction Laboratories; anti-phospho-MAPK (V8031) from Promega; anti-eEF2 (2332), anti-phospho-eEF2 (2331), anti-phospho-Akt Substrate (9611), anti-phospho-PKA Substrate (9621), and anti-phospho-PKC Substrate (2261) from Cell Signaling Technology. Anti-Ran was a generous gift from Ian Macara (University of Virginia).” left out

[4] = test system: MAPK; assay: PDB-stimulated MAPK activation in MCF-7 cells (anti-active MAPK immunoblot); format: cell-based, human; conditions: serum-deprived MCF-7; 4 h pre-incubation; 500 nM PDB 20 min
Protocol: (3A) The potency of the synthesized compounds in inhibiting RSK catalytic activity in vitro was measured as described in FIG. 2A and is graphically illustrated. (3B) Represents an images of immunoblots where serum-deprived MCF-7 cells were pre-incubated with vehicle, or the indicated concentration of inhibitor for 4 h. Cells were treated with 500 nM PDB or vehicle for 20 min prior to lysis. Protein concentration of lysates was measured and lysates were electrophoresed, transferred and immunoblotted.
For proliferation studies cells were seeded at 5000 cells per well in 96 well tissue culture plates in the appropriate medium as described by American Type Culture Collection. After 24 hours, the medium was replaced with medium containing compound or vehicle as indicated. Cell viability was measured at indicated time points using CellTiter-Glo™ assay reagent (Promega, Madison, Wis.) according to manufacturer's protocol. Maximum responses and the concentrations of half the effective response (EC50) were determined by performing a best-fit analysis of the data (GraphPad Prism). For specificity studies, cells were seeded at 3×10^5 cells/well in 6 well plates. After 24 hours, the cells were serum-starved for 24 hours then incubated with compound or vehicle for 4 hours prior to a 20 minute treatment with PDB. Cells were lysed with boiling SDS-sample buffer without dithiothreitol (DTT). […]

[5] = test system: PKA, PKC and AKT; assay: phosphorylation patterns in MCF-7 cells with phospho-PKA, -PKC, -AKT substrate antibodies (specificity); format: cell-based, human; conditions: pre-incubation before PDB
Protocol: MCF-7 cell lysates normalized for protein concentration were electrophoresed, transferred and immunoblotted with anti-phospho-PKA substrate, anti-phospho-PKC substrate or anti-phospho-AKT substrate.
as §2
The lysates were immunoblotted with multiple phospho-specific substrate antibodies.

[6] = calculated LogP (Molinspiration Property Calculation Service); conditions: relative to SL0101, from calculated LogP
Protocol: Reagents and solvents were reagent grade and used without further purification. Methylene chloride was distilled from calcium hydride. Anhydrous grade THF was purchased from VWR. All reactions involving air or moisture sensitive reagents or intermediates were performed under a nitrogen or argon atmosphere. Flash chromatography was performed using Silicycle 40-60 mesh silica gel. Analytical TLC was performed using 0.25 mm EM silica gel 60 […] plates that were visualized by irradiation (254 nm) or by staining with Hanessian's stain (cerium molybdate). Optical rotations were obtained using a Jasco digital polarimeter. ^1H and ^13C NMR spectra were obtained using 300 MHz and 500 MHz Varian instruments. Chemical shifts are reported in parts per million (ppm δ) referenced to the residual ^1H resonance of the solvent (CDCl3, 7.26 ppm; DMSO-d6, 2.49 ppm). ^13C spectra were referenced to the residual ^13C resonance of the solvent (CDCl3, 77.3 ppm; DMSO-d6, 39.5 ppm). Splitting patterns are designated as follows: s, singlet; br, broad; d, doublet; dd, doublet of doublets; t, triplet; q, quartet; m, multiplet. High resolution mass spectra were obtained at the Michigan State University-NIH Mass Spectrometry Facility. LogP values were calculated using Molinspiration Property Calculation Service (see their website).

[7] = maximum solubility in tissue culture media; format: physicochemical; conditions: aqueous buffer
[8] = test system: RSK; assay: eEF2 phosphorylation in PDB-stimulated MCF-7 cells (RSK activity in intact cells); format: cell-based, human; conditions: serum-deprived MCF-7; 4 h pre-incubation; 500 nM PDB 20 min
From the text: Therefore, the phosphorylation state of eEF2 during mitogenic stimulation is an indicator of RSK activity.

[9] = test system: MCF-7 cells; conditions: cited from earlier work
[10] = test system: MCF-10A cells; conditions: background; cited from earlier work
[11] = compounds purified from F. refracta

recombinant, constitutively active RSK2, sequence (P51812 1-397 limits assumed): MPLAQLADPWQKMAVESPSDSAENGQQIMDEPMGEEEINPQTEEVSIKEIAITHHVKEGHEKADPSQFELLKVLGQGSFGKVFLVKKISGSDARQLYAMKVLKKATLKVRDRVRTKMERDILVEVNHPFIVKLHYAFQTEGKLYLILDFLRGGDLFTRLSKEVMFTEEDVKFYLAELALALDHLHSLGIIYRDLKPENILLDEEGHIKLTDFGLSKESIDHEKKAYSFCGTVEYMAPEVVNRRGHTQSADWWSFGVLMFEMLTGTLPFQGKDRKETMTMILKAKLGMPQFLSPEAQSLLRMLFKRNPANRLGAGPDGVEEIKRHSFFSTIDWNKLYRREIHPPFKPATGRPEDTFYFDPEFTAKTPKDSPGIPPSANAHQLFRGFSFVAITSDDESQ

SMILES | pIC50 [1, 11] | inhibition of MCF-7 cell proliferation at 50 μM [2] | effect on PDB-induced MAPK activation / upstream kinases (MEK, Raf, PKC) [4] | effect on phosphorylation patterns (phospho-PKA, -PKC, -AKT substrate antibodies) [5] | specificity for RSK in intact cells [5] | effect on eEF2 phosphorylation after PDB [8] | also measured
CC(=O)OC1C(C)OC(Oc2c(-c3ccc(O)cc3)oc3cc(O)cc(O)c3c2=O)C(OC(C)=O)C1O [2″,4″-di-O-acetyl-SL0101, kaempferol 3-O-(2″,4″-di-O-acetyl-α-L-rhamnopyranoside)] | ~6.59 | similarly effective at inhibiting MCF-7 cell growth |  |  |  |  | 
CC(=O)OC1C(C)OC(Oc2c(-c3ccc(O)cc3)oc3cc(O)cc(O)c3c2=O)C(O)C1O [4″-mono-O-acetyl-SL0101, kaempferol 3-O-(4″-mono-O-acetyl-α-L-rhamnopyranoside)] | ~6.85 | did not inhibit MCF-7 cell proliferation |  |  |  |  | 
CCCC(=O)O[C@@H]1[C@@H](OC(=O)CCC)[C@@H](O)[C@H](Oc2c(-c3ccc(O)cc3)oc3cc(O)cc(O)c3c2=O)O[C@H]1C [Bu-SL0101, kaempferol 3-O-(3″,4″-di-O-butyryl-α-L-rhamnopyranoside)] |  |  | do not inhibit upstream kinases necessary for PDB-induced MAPK activation | decreased the PDB-induced phosphorylation of a ˜25 kDa protein | not specific for inhibition of RSK activity |  | pIC50 ([1]; synthesized compounds): 6.67; pEC50 ([2]; Homo sapiens, MCF7, 48 h treatment, read-out: EC50 for inhibition of MCF-7 proliferation): 4.40; concentration at which significant inhibition of MCF-10A proliferation began [3]: 100 µM; increase in hydrophobicity [6]: > 50 fold; solubility [7]: ~100 µM (≈ 57.3 µg/mL)
CC(=O)OC1C(C)OC(Oc2c(-c3ccc(O)cc3)oc3cc(O)cc(O)c3c2=O)C(O)C1OC(C)=O [SL0101, kaempferol 3-O-(3″,4″-di-O-acetyl-α-L-rhamnopyranoside), reference compound] |  | similarly effective at inhibiting MCF-7 cell growth | do not inhibit upstream kinases necessary for PDB-induced MAPK activation | similar | demonstrates specificity for RSK in intact cells | eliminated PDB-mediated inactivation of eEF2K | proliferation of the human breast cancer cell line MCF-7 ([9]; background): inhibits proliferation; pEC50 ([9]; previously reported (ref 4), current results in agreement, read-out: EC50 for inhibition of MCF-7 cell proliferation): ~4.30; growth of the normal human breast line MCF-10A [10]: does not prevent the growth
N#CC(=C(/N)Sc1ccccc1N)/C(C#N)=C(\N)Sc1ccccc1N [U0126, reference compound] |  |  |  | PDB-induced phosphorylation is inhibited |  | levels of eEF2 phosphorylation also remained increased | 
